We go through 1 compound from patent US12667598B2, “Lactobacillus paracasei ATG-EI strain or composition comprising same for preventing or treating respiratory disease” (priority 2021, dated 2026).

Experiment [1] concerns PM10D-induced airway inflammation model. The experiment is described as follows: FACS analysis of immune cells in bronchoalveolar lavage fluid (BALF). Format: in vivo, Balb/c mice. The following applies: BAL, ATG-E1 4×10^9 CFU/mouse, Dexa 3 mg/kg, orally daily for 10 days. As to the method:
(§1) There were 8 Balb/c mice (male, 8 weeks old) per group, and all groups except a normal group were injected with a fine dust mixture using the Intra-Nazal-Trachea (INT) injection method described in literatures. The fine dust mixture contained diesel exhaust particles (DEP) (PM10 (Sigma)) and 1% (final concentration) of alum. The fine dust mixture was directly injected into the airways and noses of the experimental animals on days 4, 7, and 10 of the experiment. (Lim et al., Free Radic Biol Med. 25 (6), 635-644 (1998), Shin et al., Korean J. Mediclinal Crop Sci 27 (3), 218-231 (2019)). […] An autopsy was performed on the 11th day after the start of the experiment, and bronchoalveloar lavage fluid (BALF) and lung tissue were collected.
Immune cell profiles (lymphocytes, neutrophils, macrophages, T cell subtypes, Gr-1^+CD11b^+, etc.) were measured by fluorescence-activated cell sorting (FACS) analysis of bronchoalveolar lavage fluid isolated from each individual after the end of the experiment in Example 3-1.
In general terms: In flow cytometry, cells or beads pass a laser one at a time.

Experiment [2] shares this test system. The experiment is described as follows: FACS analysis of immune cells in cells isolated from lung tissue. Conditions: ATG-E1 4×10^9 CFU/mouse, Dexa 3 mg/kg, orally daily for 10 days. Format: in vivo, Balb/c mice. As to the method: as §1
Immune cell profiles (lymphocytes, neutrophils, macrophages, T cell subtypes, Gr-1^+CD11b^+, etc.) were measured by fluorescence-activated cell sorting (FACS) analysis of […] lung tissue of each individual after the end of the experiment in Example 3-1.

In the case of `C[C@@H]1C[C@H]2[C@@H]3CCC4=CC(=O)C=C[C@]4(C)[C@@]3(F)[C@@H](O)C[C@]2(C)[C@@]1(O)C(=O)CO` [Dexa, dexamethasone], the “CD4^+ (Absolute No.)” value in experiment [1] (NC 0.07, CTL 5.26) is listed as 3.43 ± 0.58 ×10^7 cells; in experiment [2] (NC 1.97, CTL 6.13) it was 3.32 ± 0.42 ×10^7cells. In addition, the “Lymphocytes (Absolute No.)” value is 0.96 ± 0.53 ×10^7 cells in experiment [1] (NC 0.08, CTL 0.82) and 9.34 ± 6.56 ×10^7 cells in experiment [2] (NC 2.60, CTL 3.17). Further, the “CD4^+CD69^+ (Absolute No.)” value is 1.40 ± 0.19 ×10^7 cells in experiment [1] (NC 0.08, CTL 1.73) and 0.29 ± 0.07 ×10^7 cells in experiment [2] (NC 0.20, CTL 3.01). The “CD8^+ (Absolute No.)” value in experiment [1] (NC 0.14, CTL 3.72) is on record as 2.80 ± 0.71 ×10^7 cells; in experiment [2] (NC 1.11, CTL 3.46) it was 1.92 ± 0.18 ×10^7 cells. Also, the “Gr-1^+CD11b^+ (Absolute No.)” value in experiment [1] (NC 0.34, CTL 1.62) is reported as 1.38 ± 0.12 ×10^7 cells; in experiment [2] (NC 0.17, CTL 1.07), 0.60 ± 0.08 ×10^7cells. Also, the “CD62L^−CD44^+high (Absolute No.)” value in experiment [1] (NC 0.99, CTL 6.40) is 5.95 ± 0.85 ×10^7 cells; in experiment [2] (NC 0.35, CTL 2.53) it was 1.27 ± 0.15 ×10^7 cells. In addition, the “Macrophage (Absolute No.)” value in experiment [1] (NC 1.18, CTL 1.82) is given as 2.29 ± 0.28 ×10^7 cells. In addition, the “Neutrophils (Absolute No.)” value was 15.01 ± 2.14 ×10^7 cells in experiment [1] (NC 3.59, CTL 15.09) and 3.41 ± 0.83 ×10^7 cells in experiment [2] (NC 3.03, CTL 12.04). Besides, the “CD21/35 + B220^+ (Absolute No.)” value in experiment [2] (NC 0.27, CTL 3.40) is 1.35 ± 0.32 ×10^7 cells. Further, the “Eosinophils (Absolute No.)” value in experiment [2] (NC 1.56, CTL 6.87) is listed as 3.41 ± 1.06 ×10^7 cells.
